Here are results for 1 molecule from patent publication US20150306110A1, “COMPOSITIONS AND METHODS FOR TREATMENT OF INFLAMMATION AND HYPERKERATOTIC LESIONS” (Novelix Pharmaceuticals, Inc., priority 2008, published 2015).

SMILES strings stand for the structures.

Data set [1] has as its system human fibroblasts. As to the kind of experiment: Survival of fibroblasts at 80% and 30% confluency. Format: cell-based. The note with it: 2.5 μM; for Mean survival, percentage of control-treated cells: fibroblasts, n=3. The procedure: All cells were treated with 2.5 μM NVX-207. Percentage (means±S.E., n=3) of control-treated cells are given. […] Mean survival in NVX-207 treated fibroblasts at 80% confluency was 92% (S.E.=3.8) versus 3.8% mean survival (S.E.=0.4) at 30% confluency. […] HUVECs, keratinocytes and fibroblast cells were obtained from Lonza GmbH (Wuppertal, Germany) and cultivated according to the manufacturer's instructions.
Human umbilical vein endothelial cells (HUVEC), keratinocytes and fibroblast cells were obtained from Lonza GmbH (Wuppertal, Germany) and cultivated according to the manufacturer's instructions. […] The IC50 value of betulinic acid in human keratinocytes was recently determined to be ˜5.0 μg/ml (Tino Galgon al., Exp Dermatol. 14:736-43, 2005), while the IC50 of NVX-207 is ˜0.7 µg/ml. […] Mean survival in NVX-207 treated fibroblasts at 80% confluency was 92% (S.E.=3.8) versus 3.8% mean survival (S.E.=0.4) at 30% confluency. […] Under normal physiological conditions, the endothelium, as well as skin fibroblasts and skin keratinocytes, show relatively low turn-over and limited cell divisions to maintain tissue integrity.
Keratinocytes at high confluence (e.g., 80%) mimic normal physiological conditions in which these cells divide more slowly (fewer cell divisions per unit of time). In contrast, keratinocytes in psoriatic lesions divide more rapidly, as do keratinocytes cultured at lower confluency (e.g., 30%). Thus, the 30% confluency conditions were considered a model for psoriasis whereas the behavior of 80% confluent cells more closely reflects the conditions observed in normal skin.

Data set [2] concerns pigs. Particulars: pig, in vivo.
The subject of data set [3] is Hep-3B. As to the kind of experiment: Cell growth/survival, Hep-3B hepatocellular carcinoma cells. The class given is cell-based. The note with it: Homo sapiens, Hep3B, TP53 null. As to the method: (§1) Melanoma cell lines used in this study were maintained in Dulbecco's modified Eagle medium (DMEM with 4500 mg/l glucose) supplemented with 10% FCS from Gibco BRL (Life Technologies, Berlin, Germany). The canine mastocytoma cell line C2 (DeVinney et al, Am. J. Respir. Cell Mol. Biol. 3:413-20, 1990) was used in this study, along with additional human cell lines: RD-ES and TC-71 (human Ewing's sarcoma), SAOS2 (human osteosarcoma), HT-1080 (human fibrosarcoma), Caco-2 (human colon adenocarcinoma), A549 (human lung adenocarcinoma), Hep-G2 and Hep-3B (human hepatocellular carcinoma), SK-N-DZ and SK-N-FI (human embryonal neuroblastoma), HTB9 (human bladder cancer), MDA-468 and MCF-7 (human breast cancer) and SW872 liposarcoma. All breast cancer cells were routinely cultured in DMEM/F-12 or in DMEM alone supplemented with 10% FCS at 37° C. in a humidified 5% CO2 atmosphere. RD-ES and TC-71 sarcoma cell lines were maintained in RPMI 1640 (Biochrom KG, Berlin, Germany) containing 10% FCS at 37° C. in a humidified 5% CO2 atmosphere. […]
(§2) Briefly, cells were maintained in standard medium, harvested, and plated at equal densities (750,000 cells in 5 cm tissue culture dishes). […] For the assessment of cell growth, the number of surviving cells was determined using an automated cell counter from Beckman Coulter GmbH (Krefeld, Germany). […]

Data set [4] concerns Soft tissue sarcoma. Description: Intra-tumoral NVX-207 in canine patient, soft tissue sarcoma. The note with it: Patient #1, 11, F; 48 treatment cycles.
In data set [5] the test system is Melanoma-TLM1. Description: Cell growth/survival, canine melanoma TLM1 cells. The class given is cell-based. Particulars: Canis lupus familiaris. As to the method:
as §1, §2

In data set [6] the test system is MCF-7. As to the kind of experiment: Cell growth/survival, MCF-7 breast cancer cells. The class given is cell-based. The note with it: Homo sapiens, MCF7, TP53 neg. As to the method: as §1, §2
Data set [7] concerns Hep-G2. Description: Cell growth/survival, Hep-G2 hepatocellular carcinoma cells. Format: cell-based. Particulars: Homo sapiens, HepG2, TP53 neg. As to the method: as §1, §2
Data set [8] has as its system Caco-2. Description: Cell growth/survival, Caco-2 colon adenocarcinoma cells. The note with it: Homo sapiens, TP53 neg. Format: cell-based. As to the method: as §1, §2
For data set [9], the system named is SK-N-FI. As to the kind of experiment: Cell growth/survival, SK-N-FI neuronal cancer cells. Format: cell-based. The note with it: Homo sapiens, TP53 mut. As to the method: as §1, §2
Data set [10] concerns 518A2. Description: Cell growth/survival, 518A2 melanoma cells. Format: cell-based. Particulars: Homo sapiens, TP53 mut. The procedure:
as §1, §2

The subject of data set [11] is TC-71 (Ewing's sarcoma). As to the kind of experiment: Cell growth/survival, TC-71 Ewing's sarcoma cells. The note with it: Homo sapiens, TP53 mut. The class given is cell-based. As to the method: as §1, §2
Data set [12] concerns human skin. As to the kind of experiment: Tolerability of topical NVX-207 on human skin. Format: in vivo. The note with it: 1% topical solution (200 μl, 20% ethanol, 20% Tween 80 in water), human arm, once a day for one week; checked up to 6 months after. As to the method:
A 1% topical solution of NVX-207 (200 μl total volume in 20% ethanol, 20% Tween® 80 in water) was topically applied to an area of skin on a human arm once a day for one week. A control solution (20% ethanol/20% Tween® 80 and 80% water) was applied to an area of skin adjacent to the area to which the NVX-207 solution was applied, also for one week.

The subject of data set [13] is Mastocytoma-C2. Description: Cell growth/survival, canine mastocytoma C2 cells. Format: cell-based. Particulars: Canis lupus familiaris. The procedure:
as §1, §2

Data set [14] has as its system SW872 (liposarcoma). Description: Cell growth/survival, SW872 liposarcoma cells. The class given is cell-based. The note with it: Homo sapiens, TP53 mut. The procedure:
as §1, §2

Turning to `C=C(C)[C@@H]1CC[C@]2(C(=O)OCC(N)(CO)CO)CC[C@]3(C)[C@H](CC[C@@H]4[C@@]5(C)CC[C@H](OC(C)=O)C(C)(C)[C@@H]5CC[C@]43C)[C@@H]12` [NVX-207, 3-O-acetylbetulinic acid-2-amino-3-hydroxy-2-hydroxymethylpropyl ester], the “Mean survival, percentage of control-treated cells” value in data set [1] (30% confluency) worked out at 3.8%; in [1] (80% confluency) it was 92%. Further, the “More active against proliferating cells (30% vs 80% confluency)” value in [1] (human fibroblasts) was “over 20 fold”. Moreover, in data set [2], the “Blood chemistry and hematology (blood status, mineral homoeostasis, liver and kidney functions)” value was “did not reflect any systemic NVX-207-induced impact”. Besides, the “Histopathological changes in skin biopsies” value in [2] is “No treatment-related histopathological changes were observed”. Besides, the Macroscopic skin irritations entry in data set [2] (2 weeks) is listed as “No macroscopic NVX-207 related skin irritations were observed”. For the same molecule, the IC50 – broadly, the concentration that inhibits the measured activity by half – in [3] came out at 3.8 µM; in [5], 3.8 µM; in [6] it was 4 µM; in data set [7] it was 3.3 µM; in data set [8], 2700 nM; in data set [9], 3.7 µM. The concentration for half-maximal inhibition (IC50) in data set [10] came out at 2600 nM; in data set [11] it was 5.5 µM; in [13], 3000 nM; in data set [14], 1800 nM. Moreover, the “Overall Survival” value in data set [4] is 15 months. Also, the “Undesirable (toxic) effects on treated skin” value in data set [12] was “no undesirable (toxic) effects”.
